This note sets out measurements from paper PMC12692346, “Imidazolinium-Based NHC–Metal Complexes Overcome Both Cancer Multidrug Resistance and Cisplatin Resistance In Vitro” (International Journal of Molecular Sciences, 2025).

Common to all, as to type: cell-based, human
Assay [1] relates to Mes-Sa/Dx5 eGFP. The assay can be described thus: Triple coculture fluorescence cytotoxicity test, doxorubicin-selected MDR line. As to conditions: for RR_Dx5 resistance ratio (IC50_MDR line / IC50_parental line) of Mes-Sa/Dx5: Mes-Sa/Dx5 vs Mes-Sa; for IC50: triple coculture, 144 h incubation, fluorescence readout. On the procedure:
(§1) All synthesized complexes and representatives of the respective ligands (Lb, Lc, SIPr, IPr) were tested in a triple coculture of uterine sarcoma cell lines, consisting of the parental Mes-Sa cell line, and its MDR derivatives Mes-Sa/B1 and Mes-Sa/Dx5, transfected or selected in doxorubicin to overexpress P-glycoprotein, respectively (Figure 2a–c, Table S2). Each cell line expresses a distinct fluorescent protein (mCherry, mOrange, and eGFP, respectively), and the total fluorescence of a well is proportional to the cell number, allowing the assessment of compound cytotoxicity.
(§2) In a triple coculture system, cell lines expressing different fluorescent proteins were seeded in the same well. Cell lines (Mes-Sa mCherry, Mes-Sa/B1 mOrange, Mes-Sa/Dx5 eGFP [25]) were admixed and seeded on 384-well plates at a density of 3 × 800 cells/well (1:1:1 ratio), resulting in an overall total of 2400 cells. The next day, serially diluted compounds were added to the wells. Liquid handling was managed by a Hamilton StarLet pipetting robot. After 144 h of incubation, the fluorescence of mCherry (ex/em: 585/610 nm), mOrange (ex/em: 545/567 nm) and eGFP (ex/em: 485/510 nm) was recorded with an EnSpire plate reader (PerkinElmer, Waltham, MA, USA).
(§3) pIC50 values derived from both co- and monoculture systems were determined by a custom program written in C# [25], then average and standard deviations were calculated and transformed to IC50 values. Every compound was tested in at least 3 independent experiments in triplicates.

The subject of assay [2] is Mes-Sa mCherry uterine sarcoma cell line. The assay can be described thus: Triple coculture fluorescence cytotoxicity test, parental line. As to conditions: 144 h incubation, fluorescence readout. How it is done: as §1, §2, §3
Assay [3] relates to Mes-Sa/B1 mOrange. Description: Triple coculture fluorescence cytotoxicity test, ABCB1-transfected MDR line. The following applies: for RR_B1 resistance ratio (IC50_MDR line / IC50_parental line) of Mes-Sa/B1: Mes-Sa/B1 vs Mes-Sa; for IC50: triple coculture, 144 h incubation, fluorescence readout. On the procedure: as §1, §2, §3

In general, IC50 refers to the midpoint of a concentration-inhibition curve. Turning to `CC(C)c1cccc(C(C)C)c1N1[CH]([Cu][Cl])N(Cc2ccccc2)C[C@@H]1C(C)(C)C` (stereo partly shown) [Compound 1a], in assay [1], the “RR_Dx5 resistance ratio (IC50_MDR line / IC50_parental line) of Mes-Sa/Dx5” value is reported as 1.3 and half-maximal inhibition (IC50) required 0.69 µM. For the same compound, in assay [2], the IC50 was determined as 0.52 µM. In assay [3], the “RR_B1 resistance ratio (IC50_MDR line / IC50_parental line) of Mes-Sa/B1” value worked out at 4.7 and the IC50 turned out to be 2.45 µM.

`CC(C)c1cccc(C(C)C)c1N1[CH]([Cu][Cl])N([C@H](C)c2ccccc2)C[C@@H]1C(C)(C)C` (stereo partly shown) [Compound 1c]: the “RR_Dx5 resistance ratio (IC50_MDR line / IC50_parental line) of Mes-Sa/Dx5” value in assay [1] was determined as 1.5; in assay [1] (listed as 1c*) it was 2.9. Besides, the IC50 worked out at 1.18 µM in assay [1]; 2.18 µM in assay [1] (listed as 1c*); 0.8 µM in assay [2]; 0.74 µM in assay [2] (listed as 1c*); 5.5 µM in assay [3]; 3.97 µM in assay [3] (listed as 1c*). Also, the “RR_B1 resistance ratio (IC50_MDR line / IC50_parental line) of Mes-Sa/B1” value was 6.9 in assay [3] and 5.4 in assay [3] (listed as 1c*).

On to `CC(C)c1cccc(C(C)C)c1N1[CH]([Cu][Cl])N([C@@H](C)C(C)(C)C)C[C@@H]1C(C)(C)C` (stereo partly shown) [Compound 1f], for which, in assay [1], the “RR_Dx5 resistance ratio (IC50_MDR line / IC50_parental line) of Mes-Sa/Dx5” value was found to be 1.4 and the IC50 was 4.19 µM. The IC50 in assay [2] amounted to 3.04 µM. Besides, in assay [3], the “RR_B1 resistance ratio (IC50_MDR line / IC50_parental line) of Mes-Sa/B1” value is given as 2.7 and half-maximal inhibition (IC50) required 8.13 µM.

As for `CC(C)c1cccc(C(C)C)c1N1[C](=[Ag][Cl])N([C@H](C)c2ccccc2)C[C@@H]1C(C)(C)C` [Compound 2c], in assay [1], the “RR_Dx5 resistance ratio (IC50_MDR line / IC50_parental line) of Mes-Sa/Dx5” value was determined as 4.2 and the IC50 worked out at 7.14 µM. Besides, the IC50 in assay [2] stood at 1.69 µM. Besides, in assay [3], the “RR_B1 resistance ratio (IC50_MDR line / IC50_parental line) of Mes-Sa/B1” value worked out at 8.5 and half-maximal inhibition (IC50) required 14.4 µM.

Take `CC(C)c1cccc(C(C)C)c1N1[C](=[Ag][Cl])N([C@@H](C)c2cccc3ccccc23)C[C@@H]1C(C)(C)C` [Compound 2d]: in assay [1], the “RR_Dx5 resistance ratio (IC50_MDR line / IC50_parental line) of Mes-Sa/Dx5” value came out at 6.2 and the IC50 came to 3.37 µM. In addition, the IC50 in assay [2] was found to be 0.54 µM. Moreover, in assay [3], the “RR_B1 resistance ratio (IC50_MDR line / IC50_parental line) of Mes-Sa/B1” value is 9.6 and the half-inhibitory concentration (IC50) was determined as 5.2 µM.

For `CC(C)c1cccc(C(C)C)c1N1[C](=[Ag][Cl])N([C@@H](C)C(C)(C)C)C[C@@H]1C(C)(C)C` [Compound 2f], in assay [1], the “RR_Dx5 resistance ratio (IC50_MDR line / IC50_parental line) of Mes-Sa/Dx5” value came to 1.8 and the IC50 worked out at 1.37 µM. In assay [2], the IC50 was found to be 0.74 µM. In addition, in assay [3], the “RR_B1 resistance ratio (IC50_MDR line / IC50_parental line) of Mes-Sa/B1” value came out at 5.1 and the half-inhibitory concentration (IC50) is 3.77 µM.

For `CC(C)c1cccc(C(C)C)c1N1[C](=[Au][Cl])N([C@H](C)c2ccccc2)C[C@@H]1C(C)(C)C` [Compound 3c], the “RR_Dx5 resistance ratio (IC50_MDR line / IC50_parental line) of Mes-Sa/Dx5” value in assay [1] is reported as 2.1. For the same compound, the IC50 in assay [1] came to 39.6 µM; in assay [2], 18.6 µM; in assay [3], 39.8 µM. The “RR_B1 resistance ratio (IC50_MDR line / IC50_parental line) of Mes-Sa/B1” value in assay [3] came out at 2.1.

On to `CC(C)c1cccc(C(C)C)c1N1[C](=[Au][Cl])N([C@H](C)c2ccc3ccccc3c2)C[C@@H]1C(C)(C)C` [Compound 3e], for which, in assay [1], the “RR_Dx5 resistance ratio (IC50_MDR line / IC50_parental line) of Mes-Sa/Dx5” value is listed as 2.3 and the IC50 was 16.9 µM. The IC50 in assay [2] amounted to 7.47 µM. In assay [3], the “RR_B1 resistance ratio (IC50_MDR line / IC50_parental line) of Mes-Sa/B1” value is given as 2.6 and the IC50 is 19.1 µM.

Take `CC(C)c1cccc(C(C)C)c1N1[C](=[Au][Cl])N([C@@H](C)C(C)(C)C)C[C@@H]1C(C)(C)C` [Compound 3f]: in assay [1], the “RR_Dx5 resistance ratio (IC50_MDR line / IC50_parental line) of Mes-Sa/Dx5” value was found to be 1.2. Besides, the values for the IC50 in assay [1], in assay [2] and in assay [3] were 13.8 µM, 11.4 µM and 18.6 µM, respectively. Also, the “RR_B1 resistance ratio (IC50_MDR line / IC50_parental line) of Mes-Sa/B1” value in assay [3] is on record as 1.6.

For the compound `C=C[CH2][Pd]([Cl])=[C]1N([C@@H](C)c2ccccc2)C[C@H](C(C)(C)C)N1c1c(C(C)C)cccc1C(C)C` [Compound 4b], the “RR_Dx5 resistance ratio (IC50_MDR line / IC50_parental line) of Mes-Sa/Dx5” value in assay [1] came out at 2.4. The IC50 worked out at 12.2 µM in assay [1], 5.19 µM in assay [2] and 9.33 µM in assay [3]. Also, the “RR_B1 resistance ratio (IC50_MDR line / IC50_parental line) of Mes-Sa/B1” value in assay [3] came to 1.8.
